Assay results: the NIST ThermoML archive (doi:10.1016/j.jct.2016.03.026)

Experiment: xn = mol fraction of the nth substance listed
Conditions: 313.15 K, Fluid (supercritical or subcritical phases), Vibrating tube method, x1 = 0.97

O=C=O [carbon dioxide] + CO
Conditions | mass density [kg/m3]
11150 kPa | 721.68
11175 kPa | 722.44
11200 kPa | 723.12
11225 kPa | 723.83
11250 kPa | 724.5
11275 kPa | 725.17
11300 kPa | 725.87
11325 kPa | 726.55
11350 kPa | 727.24
11375 kPa | 727.87
11400 kPa | 728.58
11425 kPa | 729.26
11450 kPa | 729.89
11475 kPa | 730.56
11500 kPa | 731.23
11525 kPa | 731.88
11550 kPa | 732.54
11575 kPa | 733.12
11600 kPa | 733.75
11625 kPa | 734.36
11650 kPa | 734.97
11675 kPa | 735.62
11700 kPa | 736.24
11725 kPa | 736.79
11750 kPa | 737.41
11775 kPa | 738.01
11800 kPa | 738.59
11825 kPa | 739.2
11850 kPa | 739.81
11875 kPa | 740.42
11900 kPa | 741.01
11925 kPa | 741.62
11950 kPa | 742.23
11975 kPa | 742.81
12000 kPa | 743.38
12025 kPa | 743.98
12050 kPa | 744.51
12075 kPa | 745.12
12100 kPa | 745.65
12125 kPa | 746.23
12150 kPa | 746.78
12175 kPa | 747.4
12200 kPa | 747.95
12225 kPa | 748.48
12250 kPa | 749.04
12275 kPa | 749.5
12300 kPa | 750.05
12325 kPa | 750.56
12350 kPa | 751.14
12375 kPa | 751.63
12400 kPa | 752.14
12425 kPa | 752.63
12450 kPa | 753.18
12475 kPa | 753.64
12500 kPa | 754.12
12525 kPa | 754.59
12550 kPa | 755.09
12575 kPa | 755.53
12600 kPa | 756
12625 kPa | 756.47
12650 kPa | 756.92
12675 kPa | 757.39
12700 kPa | 757.86
12725 kPa | 758.3
12750 kPa | 758.68
12775 kPa | 759.12
12800 kPa | 759.54
12825 kPa | 759.98
12850 kPa | 760.36
12875 kPa | 760.82
12900 kPa | 761.3
12925 kPa | 761.76
12950 kPa | 762.23
12975 kPa | 762.72
13000 kPa | 763.15
13025 kPa | 763.58
13050 kPa | 764.07
13075 kPa | 764.54
13100 kPa | 764.93
13125 kPa | 765.37
13150 kPa | 765.86
13175 kPa | 766.29
13200 kPa | 766.75
13225 kPa | 767.22
13250 kPa | 767.6
13275 kPa | 768.04
13300 kPa | 768.47
13325 kPa | 768.93
13350 kPa | 769.37
13375 kPa | 769.83
13400 kPa | 770.23
13425 kPa | 770.69
13450 kPa | 771.07
13475 kPa | 771.5
13500 kPa | 771.93
13525 kPa | 772.34
13550 kPa | 772.7
13575 kPa | 773.15
13600 kPa | 773.57
13625 kPa | 773.92
13650 kPa | 774.36
13675 kPa | 774.79
13700 kPa | 775.16
13725 kPa | 775.57
13750 kPa | 776
13775 kPa | 776.36
13800 kPa | 776.72
13825 kPa | 777.12
13850 kPa | 777.52
13875 kPa | 777.93
13900 kPa | 778.33
13925 kPa | 778.72
13950 kPa | 779.11
13975 kPa | 779.47
14000 kPa | 779.85
14025 kPa | 780.28
14050 kPa | 780.67
14075 kPa | 781.06
14100 kPa | 781.44
14125 kPa | 781.8
14150 kPa | 782.18
14175 kPa | 782.55
